# Assay results as given in PubChem BioAssay AID248 (DTP/NCI, 2004).
# “And” between values parts separate entries of the source, which are not always exact repeats. Equal values may be shown once. Toxic doses and inconclusive results are not listed.
# System: L1210 leukemia ip in BDF1 mice, survival T/C
# Test: NCI In Vivo Anticancer Drug Screen. Data for tumor model L1210 Leukemia (intraperitoneal) in B6D2F1 (BDF1) mice
# Details: higher = longer survival
# How it was run: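 Survival endpoint. Drug-treated group vs vehicle group, expressed as T divided by C. Tumor passaged by transplantation.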
# [1] = endpoint: mean survival time, dose: 100.0 mg/kg/injection, schedule: Q04DX003 (ip), vehicle: saline with Tween-80
# [2] = endpoint: mean survival time, dose: 200.0 mg/kg/injection, schedule: Q04DX003 (ip), vehicle: saline with Tween-80
# [3] = endpoint: mean survival time, dose: 400.0 mg/kg/injection, schedule: Q04DX003 (ip), vehicle: saline with Tween-80
# [4] = endpoint: mean survival time, dose: 100.0 mg/kg/injection, schedule: Q01DX001 (ip), vehicle: carboxymethylcellulose (CMC)
# [5] = endpoint: mean survival time, dose: 200.0 mg/kg/injection, schedule: Q01DX001 (ip), vehicle: carboxymethylcellulose (CMC)
# [6] = endpoint: mean survival time, dose: 400.0 mg/kg/injection, schedule: Q01DX001 (ip), vehicle: carboxymethylcellulose (CMC)
# [7] = endpoint: mean survival time, dose: 25.0 mg/kg/injection, schedule: Q04DX002 (ip), vehicle: Klucel (hydroxypropylcellulose) (HPC)
# [8] = endpoint: mean survival time, dose: 50.0 mg/kg/injection, schedule: Q04DX002 (ip), vehicle: Klucel (hydroxypropylcellulose) (HPC)
# [9] = endpoint: mean survival time, dose: 100.0 mg/kg/injection, schedule: Q04DX002 (ip), vehicle: Klucel (hydroxypropylcellulose) (HPC)
# [10] = endpoint: mean survival time, dose: 100.0 mg/kg/injection, schedule: Q04DX003 (ip), vehicle: Klucel (hydroxypropylcellulose) (HPC)
# [11] = endpoint: mean survival time, dose: 200.0 mg/kg/injection, schedule: Q04DX003 (ip), vehicle: Klucel (hydroxypropylcellulose) (HPC)
# [12] = endpoint: mean survival time, dose: 400.0 mg/kg/injection, schedule: Q04DX003 (ip), vehicle: Klucel (hydroxypropylcellulose) (HPC)
smiles,measurement,setting,value
C/C(N=Nc1ccccc1)=N\Nc1cccc(C(F)(F)F)c1,T/C,"endpoint: mean survival time, dose: 50.0 mg/kg/injection, schedule: Q01DX009 (ip), vehicle: Klucel (hydroxypropylcellulose) (HPC)",107 % of control
same,T/C,"endpoint: mean survival time, dose: 100.0 mg/kg/injection, schedule: Q01DX009 (ip), vehicle: Klucel (hydroxypropylcellulose) (HPC)",102 % of control
same,T/C,"endpoint: mean survival time, dose: 200.0 mg/kg/injection, schedule: Q01DX009 (ip), vehicle: Klucel (hydroxypropylcellulose) (HPC)",110 % of control
same,T/C,"endpoint: mean survival time, dose: 400.0 mg/kg/injection, schedule: Q01DX009 (ip), vehicle: Klucel (hydroxypropylcellulose) (HPC)",102 % of control
CCOC(=O)C(=CN1CCOCC1)C(=O)OCC,T/C,"endpoint: mean survival time, dose: 100.0 mg/kg/injection, schedule: Q01DX009 (ip), vehicle: saline with Tween-80",100 % of control
same,T/C,[1],120 % of control
same,T/C,"endpoint: mean survival time, dose: 200.0 mg/kg/injection, schedule: Q01DX009 (ip), vehicle: saline with Tween-80",100 % of control
same,T/C,[2],102 % of control
same,T/C,"endpoint: mean survival time, dose: 400.0 mg/kg/injection, schedule: Q01DX009 (ip), vehicle: saline with Tween-80",100 % of control
same,T/C,[3],98 % of control
CC(CO)(CO)N=Cc1cc(Br)ccc1O,T/C,[4],102 % of control
same,T/C,[5],100 % of control
same,T/C,[6],86 % of control
COc1ccc2c3c([nH]c2c1)C(C)=NCC3,T/C,[7],93 % of control
same,T/C,[8],101 % of control
same,T/C,[9],93 % of control and 89 % of control
O=[N+]([O-])c1cccc2c1C1c3ccccc3C2c2ccccc21,T/C,"endpoint: mean survival time, dose: 50.0 mg/kg/injection, schedule: Q01DX001 (ip), vehicle: carboxymethylcellulose (CMC)",93 % of control
same,T/C,[4],93 % of control
same,T/C,[5],96 % of control
same,T/C,[6],96 % of control
CCC(C(OC(=O)Nc1ccc(Cl)c(Cl)c1)c1ccc(Cl)cc1)C(O)(C(F)(F)F)C(F)(F)F (stereo not given),T/C,[10],98 % of control
same,T/C,[11],100 % of control
same,T/C,[12],98 % of control
CN(C)c1ccc(-c2nc3nc[nH]c(=O)c3[nH]2)cc1,T/C,"endpoint: mean survival time, dose: 5.0 mg/kg/injection, schedule: Q01DX001 (ip), vehicle: saline",100 % of control
same,T/C,"endpoint: mean survival time, dose: 10.0 mg/kg/injection, schedule: Q01DX001 (ip), vehicle: saline",96 % of control
same,T/C,"endpoint: mean survival time, dose: 20.0 mg/kg/injection, schedule: Q01DX001 (ip), vehicle: saline",96 % of control
same,T/C,"endpoint: mean survival time, dose: 40.0 mg/kg/injection, schedule: Q01DX001 (ip), vehicle: saline",96 % of control
same,T/C,"endpoint: mean survival time, dose: 80.0 mg/kg/injection, schedule: Q01DX001 (ip), vehicle: saline",96 % of control
O=C1C=C(Nc2ccc(S(=O)(=O)c3ccc(NC4=CC(=O)C(=O)c5ccccc54)cc3)cc2)c2ccccc2C1=O,T/C,"endpoint: mean survival time, dose: 75.0 mg/kg/injection, schedule: Q01DX001 (ip), vehicle: saline",93 % of control
same,T/C,"endpoint: mean survival time, dose: 150.0 mg/kg/injection, schedule: Q01DX001 (ip), vehicle: saline",96 % of control
same,T/C,"endpoint: mean survival time, dose: 300.0 mg/kg/injection, schedule: Q01DX001 (ip), vehicle: saline",96 % of control
CCN(CC)c1ccc2[nH]c3c(C(N)=O)cc(=O)c(=O)c=3oc2c1,T/C,"endpoint: median survival time, dose: 12.5 mg/kg/injection, schedule: Q01DX009 (ip), vehicle: saline with Tween-80",101 % of control
same,T/C,"endpoint: median survival time, dose: 25.0 mg/kg/injection, schedule: Q01DX009 (ip), vehicle: saline with Tween-80",120 % of control
same,T/C,"endpoint: median survival time, dose: 50.0 mg/kg/injection, schedule: Q01DX009 (ip), vehicle: saline with Tween-80",113 % of control
same,T/C,"endpoint: median survival time, dose: 100.0 mg/kg/injection, schedule: Q01DX009 (ip), vehicle: saline with Tween-80",111 % of control
same,T/C,"endpoint: median survival time, dose: 200.0 mg/kg/injection, schedule: Q01DX009 (ip), vehicle: saline with Tween-80",98 % of control
O=c1c2c(c(=O)c(=O)c1=O)Nc1ccccc1N2,T/C,"endpoint: mean survival time, dose: 100.0 mg/kg/injection, schedule: Q01DX001 (ip), vehicle: saline",98 % of control
same,T/C,"endpoint: mean survival time, dose: 200.0 mg/kg/injection, schedule: Q01DX001 (ip), vehicle: saline",104 % of control
same,T/C,"endpoint: mean survival time, dose: 400.0 mg/kg/injection, schedule: Q01DX001 (ip), vehicle: saline",98 % of control
CC(C(O)c1ccc2cc(Br)c3ccccc3c2c1)N(C)C (stereo not given),T/C,"endpoint: mean survival time, dose: 55.0 mg/kg/injection, schedule: Q01DX Z (ip), vehicle: methylcellulose (MC)",101 % of control
same,T/C,"endpoint: mean survival time, dose: 83.0 mg/kg/injection, schedule: Q01DX Z (ip), vehicle: methylcellulose (MC)",101 % of control
same,T/C,"endpoint: mean survival time, dose: 125.0 mg/kg/injection, schedule: Q01DX Z (ip), vehicle: methylcellulose (MC)",101 % of control
CC1(C)N=C(N)N=C(N)N1c1ccc(CCc2ccccc2)c(Cl)c1,T/C,"endpoint: mean survival time, dose: 3.13 mg/kg/injection, schedule: Q01DX009 (ip), vehicle: Klucel (hydroxypropylcellulose) (HPC)",100 % of control
same,T/C,"endpoint: mean survival time, dose: 6.25 mg/kg/injection, schedule: Q01DX009 (ip), vehicle: Klucel (hydroxypropylcellulose) (HPC)",104 % of control
same,T/C,"endpoint: mean survival time, dose: 12.5 mg/kg/injection, schedule: Q01DX009 (ip), vehicle: Klucel (hydroxypropylcellulose) (HPC)",104 % of control
same,T/C,"endpoint: mean survival time, dose: 12.5 mg/kg/injection, schedule: Q04DX003 (ip), vehicle: Klucel (hydroxypropylcellulose) (HPC)",93 % of control
same,T/C,"endpoint: mean survival time, dose: 25.0 mg/kg/injection, schedule: Q01DX009 (ip), vehicle: Klucel (hydroxypropylcellulose) (HPC)",107 % of control
same,T/C,"endpoint: mean survival time, dose: 25.0 mg/kg/injection, schedule: Q04DX003 (ip), vehicle: Klucel (hydroxypropylcellulose) (HPC)",93 % of control
same,T/C,"endpoint: mean survival time, dose: 50.0 mg/kg/injection, schedule: Q04DX003 (ip), vehicle: Klucel (hydroxypropylcellulose) (HPC)",94 % of control
CC(=O)Nc1nc(C)c(CCC(C)C)c(Cl)n1,T/C,[7],104 % of control
same,T/C,[8],93 % of control
same,T/C,[9],105 % of control
CC(C)CCCC(C)CCCl (stereo not given),T/C,"endpoint: mean survival time, dose: 100.0 mg/kg/injection, schedule: Q04DX002 (ip), vehicle: saline with Tween-80",93 % of control
same,T/C,"endpoint: mean survival time, dose: 200.0 mg/kg/injection, schedule: Q04DX002 (ip), vehicle: saline with Tween-80",86 % of control
same,T/C,"endpoint: mean survival time, dose: 400.0 mg/kg/injection, schedule: Q04DX002 (ip), vehicle: saline with Tween-80",107 % of control
COC1OC(COC(=O)c2ccc([N+](=O)[O-])cc2)C2SC12 (stereo not given),T/C,[10],104 % of control
same,T/C,[11],97 % of control
same,T/C,[12],97 % of control
O=C(O)C1C(c2ccccc2)=C(c2ccccc2)c2ccccc21 (stereo not given),T/C,"endpoint: mean survival time, dose: 25.0 mg/kg/injection, schedule: Q04DX003 (ip), vehicle: saline with Tween-80",92 % of control
same,T/C,"endpoint: mean survival time, dose: 50.0 mg/kg/injection, schedule: Q04DX003 (ip), vehicle: saline with Tween-80",100 % of control
same,T/C,[1],95 % of control and 103 % of control
COc1cc(N[Si](C)(C)C)nc(OC)n1,T/C,"endpoint: mean survival time, dose: 50.0 mg/kg/injection, schedule: Q01DX009 (ip), vehicle: saline",100 % of control
same,T/C,"endpoint: mean survival time, dose: 100.0 mg/kg/injection, schedule: Q01DX009 (ip), vehicle: saline",96 % of control
same,T/C,"endpoint: mean survival time, dose: 200.0 mg/kg/injection, schedule: Q01DX009 (ip), vehicle: saline",92 % of control
CC12CCC(C(C(=O)O)C1=O)C2(C)C (stereo not given),T/C,[1],103 % of control
same,T/C,[2],97 % of control
same,T/C,[3],100 % of control
Cc1cccc(C)c1NC(=O)N(CCCl)N=O,T/C,"endpoint: mean survival time, dose: 5.7 mg/kg/injection, schedule: Q01DX Z (oral), vehicle: carboxymethylcellulose (CMC)",150 % of control
same,T/C,"endpoint: mean survival time, dose: 13.0 mg/kg/injection, schedule: Q01DX Z (oral), vehicle: carboxymethylcellulose (CMC)",206 % of control
same,T/C,"endpoint: mean survival time, dose: 16.0 mg/kg/injection, schedule: Q01DX001 (ip), vehicle: carboxymethylcellulose (CMC)",192 % of control
same,T/C,"endpoint: mean survival time, dose: 20.0 mg/kg/injection, schedule: Q01DX Z (oral), vehicle: carboxymethylcellulose (CMC)",170 % of control
same,T/C,"endpoint: mean survival time, dose: 31.0 mg/kg/injection, schedule: Q01DX001 (ip), vehicle: carboxymethylcellulose (CMC)",308 % of control
same,T/C,"endpoint: mean survival time, dose: 62.0 mg/kg/injection, schedule: Q01DX001 (ip), vehicle: carboxymethylcellulose (CMC)",156 % of control
same,T/C,"endpoint: mean survival time, dose: 125.0 mg/kg/injection, schedule: Q01DX001 (ip), vehicle: carboxymethylcellulose (CMC)",156 % of control
same,T/C,"endpoint: mean survival time, dose: 187.0 mg/kg/injection, schedule: Q01DX001 (ip), vehicle: carboxymethylcellulose (CMC)",91 % of control
